Test results taken from patent US11524968B2, “Heterocyclic compound as a protein kinase inhibitor” (HK inno.N Corporation, priority 2017, dated 2022).

Molecular target: JAK1 (Homo sapiens (Human), UniProt P23458)
Test: Analysis of JAK1 activity inhibition ability (ADP-Glo Kinase Assay)
Assay type: biochemical
Details: JAK1 enzyme, ADP-Glo luminescence, ATP 250 uM, IRS-itide substrate, 30° C. 40 minutes; read-out: IC50
Summary of the method: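 ADP-Glo luminescence read-out of ADP production, with IC50 taken as the concentration halving JAK1 activity relative to control. Enzyme was incubated 40 min at 30 °C with compound, IRS-itide (40 ng/mL) and ATP (250 uM), concentrations as prepared in pH 7.5 Tris-HCl/MgCl2/BSA/DTT buffer.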

Chain of JAK1 (P23458 whole entry): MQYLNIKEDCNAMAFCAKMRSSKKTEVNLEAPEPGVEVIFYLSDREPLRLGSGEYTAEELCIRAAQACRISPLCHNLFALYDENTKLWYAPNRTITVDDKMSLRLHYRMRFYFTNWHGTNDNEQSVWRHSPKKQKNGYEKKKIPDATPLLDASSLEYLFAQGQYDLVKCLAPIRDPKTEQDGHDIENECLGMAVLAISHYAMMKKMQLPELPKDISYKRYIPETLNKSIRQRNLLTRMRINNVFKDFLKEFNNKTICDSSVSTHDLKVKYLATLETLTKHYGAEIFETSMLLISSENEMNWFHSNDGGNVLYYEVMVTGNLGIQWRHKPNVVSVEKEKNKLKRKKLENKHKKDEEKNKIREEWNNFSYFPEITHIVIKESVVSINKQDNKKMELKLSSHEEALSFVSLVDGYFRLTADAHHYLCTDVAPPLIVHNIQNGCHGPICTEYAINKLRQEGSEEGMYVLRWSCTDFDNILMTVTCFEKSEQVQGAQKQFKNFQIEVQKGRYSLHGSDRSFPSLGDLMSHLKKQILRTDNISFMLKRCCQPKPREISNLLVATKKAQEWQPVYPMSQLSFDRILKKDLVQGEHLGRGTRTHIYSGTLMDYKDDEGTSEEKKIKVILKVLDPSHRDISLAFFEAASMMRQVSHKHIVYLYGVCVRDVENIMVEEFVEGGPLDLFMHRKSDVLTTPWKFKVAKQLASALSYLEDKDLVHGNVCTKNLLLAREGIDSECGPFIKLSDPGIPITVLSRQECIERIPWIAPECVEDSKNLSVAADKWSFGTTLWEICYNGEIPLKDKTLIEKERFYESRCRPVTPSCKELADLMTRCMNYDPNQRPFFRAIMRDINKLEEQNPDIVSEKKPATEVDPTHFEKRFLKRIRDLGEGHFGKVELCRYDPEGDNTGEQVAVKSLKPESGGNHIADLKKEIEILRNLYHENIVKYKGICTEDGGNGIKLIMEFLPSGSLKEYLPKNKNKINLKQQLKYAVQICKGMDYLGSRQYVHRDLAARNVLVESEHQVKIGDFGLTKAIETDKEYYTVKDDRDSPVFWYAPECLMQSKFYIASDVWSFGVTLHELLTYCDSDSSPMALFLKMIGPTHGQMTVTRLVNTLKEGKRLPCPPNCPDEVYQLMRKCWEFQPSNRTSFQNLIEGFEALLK

Compound	IC50 [nM]
CCC1CN(C(=O)CCC#N)CC=C1c1cc(NC(=O)C2CC2)nc2[nH]ccc12 (stereo not shown) [Example 295, N-(4-(1-(3-cyanopropanoyl)-3-ethyl-1,2,3,6-tetrahydropyridin-4-yl)-1H-pyrrolo[2,3-b]pyridin-6-yl)cyclopropanecarboxamide]	< 20
O=C(Nc1cc(C2=CCC(NC(=O)C3CCCC3)CC2)c2cc[nH]c2n1)C1CC1 (stereo not shown) [Example 245, N-(4-(6-(cyclopropanecarboxamido)-1H-pyrrolo[2,3-b]pyridin-4-yl)cyclohex-3-en-1-yl)cyclopentanecarboxamide]	20 to 200
CCS(=O)(=O)Nc1ccc(-c2cc(NC(=O)C3CC3)nc3[nH]ccc23)c(C)c1C [Example 131, N-(4-(4-(ethylsulfonamido)-2,3-dimethylphenyl)-1H-pyrrolo[2,3-b]pyridin-6-yl)cyclopropanecarboxamide]	20 to 200
O=C(Nc1cc(-c2ccc(NS(=O)(=O)c3ccc4c(c3)CCO4)cc2)c2cc[nH]c2n1)C1CC1 [Example 22, N-(4-(4-((2,3-dihydrobenzofuran)-5-sulfonamido)phenyl)-1H-pyrrolo[2,3-b]pyridin-6-yl)cyclopropanecarboxamide]	20 to 200
N#CCC1(CS(=O)(=O)Nc2ccc(-c3cc(NC(=O)C4CC4)nc4[nH]ccc34)cc2F)CC1 [Example 86, N-(4-(4-(((1-(cyanomethyl)cyclopropyl)methyl)sulfonamido)-3-fluorophenyl)-1H-pyrrolo[2,3-b]pyridin-6-yl)cyclopropanecarboxamide]	< 20
O=C(Nc1cc(C2=CCN(C(=O)c3ccnc(F)c3F)CCC2)c2cc[nH]c2n1)C1CC1 [Example 424, N-(4-(1-(2,3-difluoroisonicotinoyl)-2,5,6,7-tetrahydro-1H-azepin-4-yl)-1H-pyrrolo[2,3-b]pyridin-6-yl)cyclopropanecarboxamide]	< 20
Cc1ccsc1C(=O)N1CC=C(c2cc(NC(=O)C3CC3)nc3[nH]ccc23)C(C)C1 (stereo not shown) [Example 342, N-(4-(3-methyl-1-(3-methylthiophene-2-carbonyl)-1,2,3,6-tetrahydropyridin-4-yl)-1H-pyrrolo[2,3-b]pyridin-6-yl)cyclopropanecarboxamide]	20 to 200
CC1CN(C(=O)c2ccc(NCCN3CCOCC3)c(F)c2)CC=C1c1cc(NC(=O)C2CC2)nc2[nH]ccc12 (stereo not shown) [Example 323, N-(4-(1-(3-fluoro-4-((2-morpholinoethyl)amino)benzoyl)-3-methyl-1,2,3,6-tetrahydropyridin-4-yl)-1H-pyrrolo[2,3-b]pyridin-6-yl)cyclopropanecarboxamide]	> 200
N#Cc1cccc(C(=O)N2C3CCC2CN(c2cc(NC(=O)C4CC4)nc4[nH]ccc24)C3)c1 [Example 686, N-(4-(8-(3-cyanobenzoyl)-3,8-diazabicyclo[3.2.1]octan-3-yl)-1H-pyrrolo[2,3-b]pyridin-6-yl)cyclopropanecarboxamide]	< 20
O=C(Nc1cc(-c2ccc(NS(=O)(=O)C3CC3)c(-c3ccccc3)c2)c2cc[nH]c2n1)C1CC1 [Example 130, N-(4-(6-(cyclopropanesulfonamido)-[1,1′-biphenyl]-3-yl)-1H-pyrrolo[2,3-b]pyridin-6-yl)cyclopropanecarboxamide]	> 200
COc1ccc(C(=O)N2CC=C(c3cc(NC(=O)C4CC4)nc4[nH]ccc34)C(C)C2)cn1 (stereo not shown) [Example 380, N-(4-(1-(6-methoxynicotinoyl)-3-methyl-1,2,3,6-tetrahydropyridin-4-yl)-1H-pyrrolo[2,3-b]pyridin-6-yl)cyclopropanecarboxamide]	20 to 200
CCC1C=C(c2cc(NC(=O)C3CC3)nc3[nH]ccc23)CC(CC)N1C(=O)CC#N (stereo not shown) [Example 409, N-(4-(1-(2-cyanoacetyl)-2,6-diethyl-1,2,3,6-tetrahydropyridin-4-yl)-1H-pyrrolo[2,3-b]pyridin-6-yl)cyclopropanecarboxamide]	< 20
O=C(Nc1cc(C2=CC3CCC(C2)N3C(=O)C2CC2)c2cc[nH]c2n1)C1CC1 (stereo not shown) [Example 256, N-(4-(8-(cyclopropanecarbonyl)-8-azabicyclo[3.2.1]oct-2-en-3-yl)-1H-pyrrolo[2,3-b]pyridin-6-yl)cyclopropanecarboxamide]	< 20
Cc1cc(NS(=O)(=O)CC2(CC#N)CC2)ccc1-c1cc(NC(=O)C2CC2)nc2[nH]ccc12 [Example 103, N-(4-(4-(((1-(cyanomethyl)cyclopropyl)methyl)sulfonamido)-2-methylphenyl)-1H-pyrrolo[2,3-b]pyridin-6-yl)cyclopropanecarboxamide]	< 20
O=C(Nc1cc(C2=CCN(S(=O)(=O)CC3CCOCC3)CC2)c2cc[nH]c2n1)C1CC1 [Example 169, N-(4-(1-(((tetrahydro-2H-pyran-4-yl)methyl)sulfonyl)-1,2,3,6-tetrahydropyridin-4-yl)-1H-pyrrolo[2,3-b]pyridin-6-yl)cyclopropanecarboxamide]	> 200
CC(C)(C)OC(=O)N1CCC(c2cc(NC(=O)C3CC3)nc3[nH]ccc23)C(F)C1 (stereo not shown) [Example 656, tert-butyl 4-(6-(cyclopropanecarboxamido)-1H-pyrrolo[2,3-b]pyridin-4-yl)-3-fluoropiperidine-1-carboxylate]	> 200

Compound	IC50 [nM]
O=C(Nc1cc(-c2ccc(CC(=O)N3CCNCC3)cc2)c2cc[nH]c2n1)C1CC1 [Example 558, N-(4-(4-(2-oxo-2-(piperazin-1-yl)ethyl)phenyl)-1H-pyrrolo[2,3-b]pyridin-6-yl)cyclopropanecarboxamide]	> 200
O=C(Nc1cc(C2=CCC(NC(=O)C3CC3)CC2)c2cc[nH]c2n1)C1CC1 (stereo not shown) [Example 246, N-(4-(6-(cyclopropanecarboxamido)-1H-pyrrolo[2,3-b]pyridin-4-yl)cyclohex-3-en-1-yl)cyclopropanecarboxamide]	20 to 200
N#CCC(=O)N1CC=C(c2cc(NC(=O)C3CC3)nc3[nH]ccc23)CC1 [Example 250, N-(4-(1-(2-cyanoacetyl)-1,2,3,6-tetrahydropyridin-4-yl)-1H-pyrrolo[2,3-b]pyridin-6-yl)cyclopropanecarboxamide]	< 20
O=C(Nc1cc(-c2ccc(NC3CCN(C(=O)c4cc(F)cc(F)c4)CC3)c(F)c2)c2cc[nH]c2n1)C1CC1 [Example 499, N-(4-(4-((1-(3,5-difluorobenzoyl)piperidin-4-yl)amino)-3-fluorophenyl)-1H-pyrrolo[2,3-b]pyridin-6-yl)cyclopropanecarboxamide]	> 200
O=C(Nc1cc(-c2ccc(NC3CCN(C(=O)c4ccnc(F)c4)CC3)c(F)c2)c2cc[nH]c2n1)C1CC1 [Example 500, N-(4-(3-fluoro-4-((1-(2-fluoroisonicotinoyl)piperidin-4-yl)amino)phenyl)-1H-pyrrolo[2,3-b]pyridin-6-yl)cyclopropanecarboxamide]	> 200
O=C(Nc1cc(N2CCN(C[C@@H]3CC3(F)F)CC2)c2cc[nH]c2n1)C1CC1 [Example 699, (S)—N-(4-(4-((2,2-difluorocyclopropyl)methyl)piperazin-1-yl)-1H-pyrrolo[2,3-b]pyridin-6-yl)cyclopropanecarboxamide]	20 to 200
CC1CN(C(=O)c2cnccn2)CC=C1c1cc(NC(=O)C2CC2)nc2[nH]ccc12 (stereo not shown) [Example 343, N-(4-(3-methyl-1-(pyrazine-2-carbonyl)-1,2,3,6-tetrahydropyridin-4-yl)-1H-pyrrolo[2,3-b]pyridin-6-yl)cyclopropanecarboxamide]	20 to 200
O=C(Cc1ccc(-c2cc(NC(=O)C3CC3)nc3[nH]ccc23)cc1)Nc1ccon1 [Example 544, N-(4-(4-(2-(isoxazol-3-ylamino)-2-oxoethyl)phenyl)-1H-pyrrolo[2,3-b]pyridin-6-yl)cyclopropanecarboxamide]	20 to 200
C[C@@H]1CN(C(=O)c2ccc(Cl)nc2)CC=C1c1cc(NC(=O)C2CC2)nc2[nH]ccc12 [Example 400, (S)—N-(4-(1-(6-chloronicotinoyl)-3-methyl-1,2,3,6-tetrahydropyridin-4-yl)-1H-pyrrolo[2,3-b]pyridin-6-yl)cyclopropanecarboxamide]	< 20
CC1CN(C(=O)c2ccc(O)cc2)CC=C1c1cc(NC(=O)C2CC2)nc2[nH]ccc12 (stereo not shown) [Example 350, N-(4-(1-(4-hydroxybenzoyl)-3-methyl-1,2,3,6-tetrahydropyridin-4-yl)-1H-pyrrolo[2,3-b]pyridin-6-yl)cyclopropanecarboxamide]	20 to 200
N#CCCCC(=O)N1CC=C(c2cc(NC(=O)C3CC3)nc3[nH]ccc23)CC1 [Example 265, N-(4-(1-(4-cyanobutanoyl)-1,2,3,6-tetrahydropyridin-4-yl)-1H-pyrrolo[2,3-b]pyridin-6-yl)cyclopropanecarboxamide]	< 20
O=C(Nc1cc(C2=CCN(CCN3CCOCC3)C2)c2cc[nH]c2n1)C1CC1 [Example 484, N-(4-(1-(2-morpholinoethyl)-2,5-dihydro-1H-pyrrol-3-yl)-1H-pyrrolo[2,3-b]pyridin-6-yl)cyclopropanecarboxamide]	> 200
CC1CN(C(=O)C2(C#N)CCCC2)CC=C1c1cc(NC(=O)C2CC2)nc2[nH]ccc12 (stereo not shown) [Example 361, N-(4-(1-(1-cyanocyclopentane-1-carbonyl)-3-methyl-1,2,3,6-tetrahydropyridin-4-yl)-1H-pyrrolo[2,3-b]pyridin-6-yl)cyclopropanecarboxamide]	20 to 200
CC1CN(C(=O)c2cccc(Br)n2)CC=C1c1cc(NC(=O)C2CC2)nc2[nH]ccc12 (stereo not shown) [Example 337, N-(4-(1-(6-bromopicolinoyl)-3-methyl-1,2,3,6-tetrahydropyridin-4-yl)-1H-pyrrolo[2,3-b]pyridin-6-yl)cyclopropanecarboxamide]	20 to 200
CC1(C)CN(S(=O)(=O)CCCC#N)CC=C1c1cc(NC(=O)C2CC2)nc2[nH]ccc12 [Example 180, N-(4-(1-((3-cyanopropyl)sulfonyl)-3,3-dimethyl-1,2,3,6-tetrahydropyridin-4-yl)-1H-pyrrolo[2,3-b]pyridin-6-yl)cyclopropanecarboxamide]	20 to 200
